The text below walks through data of US9486506B2 (Novo Nordisk A/S, priority 2011, dated 2016).

For this test, the target named is T1, glucagon receptor (Homo sapiens, UniProt P47871).
T1 construct: expressed in transfected cells
Nature of the test: Assay (I) Glucagon activity (cAMP biosensor, FLIPR). In kind it is cell-based. As for the experimental part: The cells (14000 per well) were incubated (37° C., 5% CO2) overnight in 384-well plates. Next day the cells were loaded with a calcium responsive dye that only distributed into the cytoplasm. Probenecid, an inhibitor of the organic anion transporter, was added to prevent the dye from leaving the cell. A PDE inhibitor was added to prevent formatted cAMP from being degraded. The plates were placed into a […] and the glucagon analogues were added. End point data were collected after 6 minutes. An increase in intracellular cAMP was proportional to an increased in calcium concentrations in the cytoplasm. When calcium was bound the dry a fluorescence signal was generated. EC50-values were calculated in Prism5.

Numbered stars: 1 amine (or outer) side, 2 acyl side, 3 side chain; on linkers, the order of the positions; unused ones are H or OH. Side chains are listed from the residue outwards. Peptide text beside a SMILES is read from it. * marks the point of attachment. C18 diacid = O=C(O)CCCCCCCCCCCCCCCCC(=O)*; γGlu = O=C(O)[C@H](CCC(=O)[*:2])N[*:1]; AEEA = NCCOCCOCC(=O)O

T1 sequence (P47871 26-477): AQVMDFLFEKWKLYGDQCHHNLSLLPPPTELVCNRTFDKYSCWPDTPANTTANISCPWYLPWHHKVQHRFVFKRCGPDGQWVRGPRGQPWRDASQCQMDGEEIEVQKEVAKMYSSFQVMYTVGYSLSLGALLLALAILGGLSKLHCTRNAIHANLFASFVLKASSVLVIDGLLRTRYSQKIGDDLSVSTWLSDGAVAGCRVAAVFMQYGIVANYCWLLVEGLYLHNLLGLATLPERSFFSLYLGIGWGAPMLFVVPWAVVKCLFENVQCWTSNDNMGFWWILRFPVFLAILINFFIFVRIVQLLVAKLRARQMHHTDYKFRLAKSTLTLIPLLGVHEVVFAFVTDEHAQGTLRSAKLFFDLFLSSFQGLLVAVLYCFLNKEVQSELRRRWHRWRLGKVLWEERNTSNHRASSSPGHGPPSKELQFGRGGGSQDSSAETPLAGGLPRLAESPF

On to `CC(C)C[C@H](NC(=O)[C@H](Cc1c[nH]c2ccccc12)NC(=O)[C@H](CCCCNC(=O)CC[C@H](NC(=O)CC[C@H](NC(=O)COCCOCCNC(=O)COCCOCCNC(=O)CC[C@H](NC(=O)CCCCCCCCCCCCCCCCC(=O)O)C(=O)O)C(=O)O)C(=O)O)NC(=O)[C@@H](NC(=O)[C@H](Cc1ccccc1)NC(=O)[C@H](CC(=O)O)NC(=O)[C@H](CCC(N)=O)NC(=O)[C@H](C)NC(=O)[C@H](CCCNC(=N)N)NC(=O)[C@H](CCCNC(=N)N)NC(=O)[C@@H](NC(=O)[C@H](CC(=O)O)NC(=O)[C@H](CC(C)C)NC(=O)[C@H](Cc1ccc(O)cc1)NC(=O)[C@H](CCCCN)NC(=O)[C@H](CO)NC(=O)[C@H](Cc1ccc(O)cc1)NC(=O)[C@H](CC(=O)O)NC(=O)[C@H](CO)NC(=O)[C@@H](NC(=O)[C@H](Cc1ccccc1)NC(=O)[C@@H](NC(=O)CNC(=O)[C@H](CCC(N)=O)NC(=O)[C@H](CO)NC(=O)[C@@H](N)Cc1c[nH]cn1)[C@@H](C)O)[C@@H](C)O)C(C)C)C(C)C)C(=O)N[C@@H](CC(C)C)C(=O)N[C@@H](CC(N)=O)C(=O)N[C@H](C(=O)O)[C@@H](C)O` [Example 7, N^ε24-[(4S)-4-carboxy-4-[[(4S)-4-carboxy-4-[[2-[2-[2-[[2-[2-[2-[[(4S)-4-carboxy-4-(17-carboxyheptadecanoylamino)butanoyl]amino]ethoxy]ethoxy]acetyl]amino]ethoxy]ethoxy]acetyl]amino]butanoyl]amino]butanoyl]-[Val^16,Lys^24,Leu^27]-Glucagon], for which the midpoint of the response, the EC50, lay at 0.081 nM.
With `CC(C)C[C@H](NC(=O)[C@H](Cc1ccc(O)cc1)NC(=O)[C@H](CCCCN)NC(=O)[C@H](CO)NC(=O)[C@H](Cc1ccc(O)cc1)NC(=O)[C@H](CC(=O)O)NC(=O)[C@H](CO)NC(=O)[C@@H](NC(=O)[C@H](Cc1ccccc1)NC(=O)[C@@H](NC(=O)CNC(=O)[C@H](Cc1c[nH]cn1)NC(=O)[C@H](CO)NC(=O)[C@@H](N)Cc1c[nH]cn1)[C@@H](C)O)[C@@H](C)O)C(=O)N[C@@H](CC(=O)O)C(=O)N[C@@H](CO)C(=O)N[C@@H](CCCCN)C(=O)N[C@@H](CCCNC(=N)N)C(=O)N[C@@H](C)C(=O)N[C@@H](CCC(N)=O)C(=O)N[C@@H](CCC(=O)O)C(=O)N[C@@H](Cc1ccccc1)C(=O)N[C@H](C(=O)N[C@@H](CCCCNC(=O)CC[C@H](NC(=O)CC[C@H](NC(=O)COCCOCCNC(=O)CC[C@H](NC(=O)CCCCCCCCCCCCCCCCC(=O)O)C(=O)O)C(=O)O)C(=O)O)C(=O)N[C@@H](Cc1c[nH]c2ccccc12)C(=O)N[C@@H](CC(C)C)C(=O)N[C@@H](CC(C)C)C(=O)N[C@@H](CO)C(=O)N[C@H](C(=O)O)[C@@H](C)O)C(C)C` [Example 6, N^ε24-[(4S)-4-carboxy-4-[[(4S)-4-carboxy-4-[[2-[2-[2-[[(4S)-4-carboxy-4-(17-carboxyheptadecanoylamino)butanoyl]amino]ethoxy]ethoxy]acetyl]amino]butanoyl]amino]butanoyl]-[His^3,Lys^17,Glu^21,Lys^24,Leu^27,Ser^28]-Glucagon] (H-HSHGTFTSDYSKYLDSKRAQEFVK([γGlu-γGlu-AEEA-γGlu-C18 diacid])WLLST-OH), the midpoint of the response, the EC50, lay at 0.077 nM.
